# Experimental data published in patent US9504700B2, “Methods and compositions for stimulation and enhancement of regeneration of tissues” (MOUNT DESERT ISLAND BIOLOGICAL LABORATORY, priority 2012, dated 2016).
# How the values were obtained:
# PTP1B = molecular target: T1, PTP1B (Homo sapiens, UniProt P18031); details: in vitro enzyme assay; cited from earlier work
# T1 sequence (P18031 1-435): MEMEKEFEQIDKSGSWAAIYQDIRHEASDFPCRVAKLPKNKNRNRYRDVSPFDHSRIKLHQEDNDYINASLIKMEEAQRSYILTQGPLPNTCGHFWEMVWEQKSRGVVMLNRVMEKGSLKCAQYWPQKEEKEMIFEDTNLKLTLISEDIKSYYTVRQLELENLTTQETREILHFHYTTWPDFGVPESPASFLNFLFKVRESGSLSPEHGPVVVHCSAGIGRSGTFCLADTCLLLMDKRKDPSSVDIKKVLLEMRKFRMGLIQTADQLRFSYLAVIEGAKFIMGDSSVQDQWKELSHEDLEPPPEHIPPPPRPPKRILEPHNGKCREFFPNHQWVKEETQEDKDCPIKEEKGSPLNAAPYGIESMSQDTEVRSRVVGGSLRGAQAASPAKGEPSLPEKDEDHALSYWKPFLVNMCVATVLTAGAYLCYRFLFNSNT
# HIV = details: tissue culture; cited from earlier work
# [1] = tested on: caudal fin of adult zebrafish; experiment: Caudal fin regeneration after amputation in adult zebrafish; assay type: in vivo
# Description: The purpose of this example was to evaluate the pharmacological effect of aminosterol MSI-1436 administration on the regeneration of the caudal or tail fins of zebrafish. Wildtype adult zebrafish were treated with MSI-1436 or squalamine or a control of phosphate buffered saline solution (PBS) over a four-day period via daily intraperitoneal microinjections. The adult zebrafish were bred and housed in the Yin laboratory at Mount Desert Island Biological Laboratory. The microinjections of PBS, squalamine and MSI-1436 were performed for the duration of the experiments at concentrations of 0.125 mg/kg which corresponds to 50 ng/300 mg body weight which translates to 5-200 mg per dose in humans. On average, a 5 ul volume of 10 ug/ml solution was delivered into each animal with a custom made 10 ul glass syringe (Hamilton part #80008).
# The tail or caudal fins were amputated following the second day of intraperitoneal microinjections. These amputations were accomplished using a razor blade to remove approximately 50% of the caudal fins each in a manner perpendicular to the direction of bony ray growth. The zebrafish were maintained at standard conditions of 28° C. at all times during the experiments. At 4 days post-amputation (4 dpa) through 14 dpa, caudal fins were imaged with an Olympus MVX10 stereomicroscope and the length of regenerated tissue from the amputation plane was quantified using Adobe Photoshop.
# (The dashed lines correspond to the amputation planes; the scale bar is 1 mm; * corresponds to the Student's ttest p-value <0.01; error bars correspond to SEM; n corresponds to 8-10 fish per group.) MSI-1436 stimulated appendage regeneration 2-fold four days after amputation (4 dpa), as shown in FIG. 2. […] In other words, the rate of regeneration was […] for those animals receiving MSI-1436 than for those receiving either phosphate buffered saline (PBS) or squalamine. Each of the experiments was conducted with at least 6 animals per group. […] FIG. 1 reflects the results of all four experiments.
# Wildtype adult zebrafish were subjected to caudal fin amputation and treated daily with either control PBS or MSI-1436 as described above in the context of FIG. 1 for 14 consecutive days during regeneration. (Arrowhead=amputation plane; n=4-6 per group).
# [2] = tested on: Normal, green monkey kidney cells; experiment: Cellular proliferation of normal green monkey kidney cells; assay type: cell-based; details: 0.1 μg/ml or 1.0 μg/ml, two weeks
# Description: This study was conducted to determine the effects of MSI-1436 on the cellular proliferation of normal, uninjured mammalian cells.
# Normal, green monkey kidney cells were cultured with either control media of PBS or supplemented with 0.1 μg/ml or 1.0 μg/ml of MSI-1436. Growth media with and without MSI-1436 were replaced daily and total cell numbers were determined for each group over a period of 2-weeks.
# zebrafish adult hearts [3] = experiment: Rescue of let-7 miRNA depletion defect in heart regeneration (cardiomyocyte proliferation index); assay type: in vivo; details: 3 dpa
# Excerpt: To determine if MSI-1436 is capable of rescuing defects in heart regeneration, we microinjected antisense oligonucleotides to bind and remove activity of the let-7 family of small RNAs (miRNAs). Wildtype adult zebrafish were injured via the partial ventricular resection procedure described above and treated with either 1) control of PBS, 2) MSI-1436, 3) miRNA depletion, and 4) miRNA depletion and MSI-1436. At three days post-amputation (3 dpa), hearts were extracted and stained to detect Mef2+PCNA+cells. Cardiomyocyte proliferation indices were determined as a percent of Mef2+PCNA+cells within the total cardiomyocyte population in each heart. (*=Student's ttest p-value <0.05; error bars=SEM; n=8-12 hearts per group) The inclusion of MSI-1436 enhanced cardiomyocyte proliferation indices by 2-fold when compared to control hearts. Depletion of the let-7 family of miRNAs with antisense nucleotides inhibited cardiomyocyte proliferation index by approximately 45%.
# zebrafish adult hearts [4] = experiment: Heart regeneration after partial ventricular resection (cardiomyocyte proliferation index, Mef2+PCNA+); assay type: in vivo; details: 3 dpa; 0.125 mg/kg daily ip
# Description: The pharmacological effect of aminosterol MSI-1436 administration on the regeneration of zebrafish adult hearts was tested using the same experimental paradigm described under the first study of example 1.
# Adult zebrafish of 6-8 months old, were subjected to partial ventricular resection procedures followed by daily treatments with intraperitoneal microinjections of PBS (control) or squalamine or MSI-1436 at concentrations of 0.125 mg/kg. The ventricular resection procedures removed ˜20% of the ventricular apex of each heart and challenged each animal to regenerate new heart tissue. At three days post-amputation (3 dpa), hearts were extracted, fixed, cyrosectioned and stained with antibodies directed against Mef2 and PCNA. Cardiomyocyte proliferation indices were determined for each group by representing Mef2+PCNA+cells as a percent of total Mef2+cells within each heart. (*=Student's ttest p-value <0.05; error bars=SEM; n=4 per group).
# hepatoma cells = details: cited from earlier work
# [5] = tested on: caudal fin blastema cells; experiment: Proliferation of caudal fin blastema cells (H3P staining); assay type: in vivo, zebrafish; details: 4 dpa, vs control
# Excerpt: The zebrafish caudal fins from the control and MSI-1436 treated animals were extracted at four days post-amputation (4 dpa) and stained with an antibody directed against phosphorylated histone 3 (H3P) as a marker of cell proliferation. […] (Arrowheads highlight subset of H3P positive cells; * corresponds to Student's ttest p-value <0.001; error bars correspond to SEM; n corresponds to 6 fish per group).
# insulin receptor = details: mouse, with administration of insulin; cited from earlier work
smiles,measurement,setting,value
CC(C)[C@@H](CC[C@@H](C)[C@H]1CC[C@H]2[C@@H]3[C@H](O)C[C@H]4C[C@@H](NCCCNCCCCNCCCN)CC[C@]4(C)[C@H]3CC[C@]12C)OS(=O)(=O)O [MSI-1436],PTP1B activity,PTP1B,inhibit the activity of PTP1B
same,antiviral activity against HIV,HIV,exhibits antiviral activity against HIV
same,anatomy of restored tail,[1]; 0.125 mg/kg daily ip,anatomically normal
same,rate of regeneration greater than PBS or squalamine,[1]; 0.125 mg/kg daily ip,200%
same,overgrowth of regenerated tissue,[1]; 14 consecutive days of daily microinjections,did not display any overgrowth
same,amount of regenerated tissue vs control,[1]; 14 days post-amputation (14 dpa),same amount of regenerated tissue
same,stimulation of appendage regeneration,"[1]; four days after amputation (4 dpa), 0.125 mg/kg daily ip",2 fold
same,cellular proliferation plots,[2]; media replaced daily,normal growth curves
same,overgrowth or hyperproliferation,[2],did not promote overgrowth or hyperproliferation
same,enhancement of cardiomyocyte proliferation indices vs control hearts,zebrafish adult hearts [3],2 fold
same,cardiomyocyte proliferation index in animals with miRNA depletion,zebrafish adult hearts [3]; miRNA depletion and MSI-1436,restored to wildtype control levels
same,"greater rate of heart regeneration, as quantified by cardiomyocyte proliferation indices, vs PBS or squalamine",zebrafish adult hearts [4],2-3 fold
same,phosphorylation of the insulin receptor,hepatoma cells,increase the level of phosphorylation of the insulin receptor
same,increase in cellular proliferation of blastema cells (H3P positive),[5],2 fold
same,recovery of phosphorylated insulin receptor from the hypothalamus,insulin receptor,increase in the recovery of phosphorylated insulin receptor from the hypothalamus
